Laboratory results from the supplement of paper PMC8612539.
Converted amounts (≈) assume the structure as drawn.

Test system: Histophilus somni
Test: minimum inhibitory concentration (MIC)
Description: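 Broth microdilution MIC (Sensititre BOPO7F bovine plate, CLSI methods) of 19 antimicrobials against field isolates of P. multocida, M. haemolytica, H. somni (deep nasopharyngeal swabs) and E. coli, Enterococcus spp. (rectal swabs) from weaned dairy heifers. Incubation 16-24 h at 35 C. MIC is the lowest concentration preventing visible growth. Values with <= or > lie at the tested range limits. Trimethoprim-sulfamethoxazole is given as the trimethoprim component of a 1:19 mixture.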

CC[C@H]1OC(=O)C[C@@H](O)[C@H](C)[C@@H](O[C@@H]2O[C@H](C)[C@@H](O)[C@H](N(C)C)[C@H]2O)[C@@H](CCN2C[C@H](C)C[C@H](C)C2)C[C@@H](C)C(=O)/C=C/C(C)=C/[C@@H]1CO[C@@H]1O[C@H](C)[C@@H](O)[C@@H](OC)[C@H]1OC [Tilmicosin]
Conditions	minimum inhibitory concentration [µg/mL]
isolate (source animal id): 3	8 (≈ 9.2 µM)
isolate (source animal id): 4	≤ 2
isolate (source animal id): 7	≤ 2
isolate (source animal id): 14	≤ 2
isolate (source animal id): 15	8 (≈ 9.2 µM)
isolate (source animal id): 17	≤ 2
isolate (source animal id): 18	4 (≈ 4.6 µM)
isolate (source animal id): 20	≤ 2
isolate (source animal id): 23	4 (≈ 4.6 µM)
isolate (source animal id): 45	8 (≈ 9.2 µM)
isolate (source animal id): 53	8 (≈ 9.2 µM)
isolate (source animal id): 83	4 (≈ 4.6 µM)
isolate (source animal id): 88	4 (≈ 4.6 µM)
isolate (source animal id): 92	8 (≈ 9.2 µM)
isolate (source animal id): 93	4 (≈ 4.6 µM)
isolate (source animal id): 99	4 (≈ 4.6 µM)
isolate (source animal id): 100	8 (≈ 9.2 µM)
isolate (source animal id): 105	4 (≈ 4.6 µM)
isolate (source animal id): 107	4 (≈ 4.6 µM)
isolate (source animal id): 108	4 (≈ 4.6 µM)
isolate (source animal id): 109	8 (≈ 9.2 µM)
isolate (source animal id): 110	8 (≈ 9.2 µM)
isolate (source animal id): 117	4 (≈ 4.6 µM)
isolate (source animal id): 121	4 (≈ 4.6 µM)
isolate (source animal id): 123	8 (≈ 9.2 µM)
isolate (source animal id): 124	4 (≈ 4.6 µM)
isolate (source animal id): 127	4 (≈ 4.6 µM)
isolate (source animal id): 128	4 (≈ 4.6 µM)
isolate (source animal id): 130	8 (≈ 9.2 µM)
isolate (source animal id): 132	4 (≈ 4.6 µM)
isolate (source animal id): 135	4 (≈ 4.6 µM)
isolate (source animal id): 140	4 (≈ 4.6 µM)
isolate (source animal id): 141	4 (≈ 4.6 µM)
isolate (source animal id): 142	> 16
isolate (source animal id): 144	8 (≈ 9.2 µM)
isolate (source animal id): 146	8 (≈ 9.2 µM)
isolate (source animal id): 147	> 16
isolate (source animal id): 151	4 (≈ 4.6 µM)
isolate (source animal id): 153	16 (≈ 18.4 µM)
isolate (source animal id): 154	> 16
isolate (source animal id): 156	> 16
isolate (source animal id): 157	16 (≈ 18.4 µM)
isolate (source animal id): 176	16 (≈ 18.4 µM)
isolate (source animal id): 183	8 (≈ 9.2 µM)
isolate (source animal id): 186	8 (≈ 9.2 µM)
isolate (source animal id): 196	8 (≈ 9.2 µM)
isolate (source animal id): 198	8 (≈ 9.2 µM)
isolate (source animal id): 200	8 (≈ 9.2 µM)
isolate (source animal id): 206	8 (≈ 9.2 µM)
isolate (source animal id): 208	8 (≈ 9.2 µM)
isolate (source animal id): 210	4 (≈ 4.6 µM)
isolate (source animal id): 212	≤ 2
isolate (source animal id): 215	8 (≈ 9.2 µM)
isolate (source animal id): 216	16 (≈ 18.4 µM)
isolate (source animal id): 218	8 (≈ 9.2 µM)
isolate (source animal id): 219	8 (≈ 9.2 µM)
isolate (source animal id): 224	8 (≈ 9.2 µM)
isolate (source animal id): 228	8 (≈ 9.2 µM)
isolate (source animal id): 230	16 (≈ 18.4 µM)
isolate (source animal id): 233	4 (≈ 4.6 µM)
isolate (source animal id): 238	≤ 2
isolate (source animal id): 239	8 (≈ 9.2 µM)
isolate (source animal id): 241	8 (≈ 9.2 µM)
isolate (source animal id): 242	8 (≈ 9.2 µM)
isolate (source animal id): 243	8 (≈ 9.2 µM)
isolate (source animal id): 245	≤ 2
isolate (source animal id): 246	8 (≈ 9.2 µM)
isolate (source animal id): 247	16 (≈ 18.4 µM)
isolate (source animal id): 248	≤ 2
isolate (source animal id): 250	8 (≈ 9.2 µM)
isolate (source animal id): 251	8 (≈ 9.2 µM)
isolate (source animal id): 252	16 (≈ 18.4 µM)
isolate (source animal id): 254	8 (≈ 9.2 µM)
isolate (source animal id): 258	4 (≈ 4.6 µM)
isolate (source animal id): 259	4 (≈ 4.6 µM)
isolate (source animal id): 262	≤ 2
isolate (source animal id): 264	≤ 2
isolate (source animal id): 265	≤ 2
isolate (source animal id): 266	4 (≈ 4.6 µM)
isolate (source animal id): 267	4 (≈ 4.6 µM)
isolate (source animal id): 269	4 (≈ 4.6 µM)
isolate (source animal id): 271	4 (≈ 4.6 µM)
isolate (source animal id): 272	≤ 2
isolate (source animal id): 274	≤ 2
isolate (source animal id): 276	≤ 2
isolate (source animal id): 278	≤ 2
isolate (source animal id): 280	≤ 2
isolate (source animal id): 281	8 (≈ 9.2 µM)
isolate (source animal id): 283	4 (≈ 4.6 µM)
isolate (source animal id): 288	8 (≈ 9.2 µM)
isolate (source animal id): 291	4 (≈ 4.6 µM)
isolate (source animal id): 292	8 (≈ 9.2 µM)
isolate (source animal id): 296	4 (≈ 4.6 µM)
isolate (source animal id): 306	8 (≈ 9.2 µM)
isolate (source animal id): 336	8 (≈ 9.2 µM)
isolate (source animal id): 337	8 (≈ 9.2 µM)
isolate (source animal id): 341	8 (≈ 9.2 µM)
